One may read the IC50 as the concentration at which inhibition is half-maximal.

Like-named read-outs stand apart in the source and are kept apart here.

Data on 9 compounds can be found in patent US10562848B2, “Inhibitors of TNF superfamily costimulatory interactions and methods for uses of the same” (UNIVERSITY OF MIAMI, priority 2015, dated 2020).

Assay [1] addresses T1, human CD40-CD40L (Homo sapiens, UniProt P29965).
T1 construct: purchased Enzo Life Sciences (San Diego, Calif.)
T1 sequence (P29965 116-261 limits assumed): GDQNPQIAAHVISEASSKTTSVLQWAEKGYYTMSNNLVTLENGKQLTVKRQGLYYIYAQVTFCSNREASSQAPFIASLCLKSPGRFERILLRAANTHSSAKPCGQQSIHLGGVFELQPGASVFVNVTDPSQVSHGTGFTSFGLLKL
The assay can be described thus: Cell-free ELISA-type CD40-CD40L binding inhibition assay. As to the method:
Compounds according to the disclosure were assessed for their ability to inhibit the binding of tagged ligands to plate-bound receptors using ELISA-type 96-well plate-based cell-free assays as described in the literature (see Margolles-Clark et al, J Mol Med 87:1133-1143 (2009); Margolles-Clark et al., Chem Biol Drug Des 76:305-313 (2010); Song et al., Br J Pharmacol 171:4955-4969 (2014); and Ganesan et al., Biochem Pharmacol 81:810-818 (2011)).
Recombinant receptors (hCD40:Fc, TNF-R1:Fc) and tagged ligands (hCD154, MegaCD40L, and TNF-α), were obtained from Enzo Life Sciences (San Diego, Calif.). Microtiter plates (Nunc F Maxisorp; 96-well) were coated overnight at 4° C. with 100 μL/well of Fc chimeric receptors diluted in PBS 7.2. This was followed by blocking with 200 μL/well of blocking solution (PBS 7.2, 0.05% Tween-20, 1% BSA) for 1 hour at room temperature. […] Either anti-FLAG-HRP or streptavidin-HRP conjugate was used to detect the bound FLAG-tagged or biotinylated ligand, respectively. Plates were washed three times before the addition of 120 μL/well of HRP substrate TMB (3, 3′, 5, 5′-tetramethylbenzidine) and kept in the dark for 15-30 min. The reaction was stopped using 30 μL 1M H2SO4, and the absorbance was read at 450 nm. Stock solutions of compounds at 10 mM in DMSO were used.
(§1) Typical concentrations used were as follows—receptors: 0.3 μg/mL for CD40, TNF-R1, and RANK; 0.6 μg/mL for BAFF-R, OX40, and 4-1BB; and 2 μg/mL for EGF-R-ligands: 0.02 μg/mL for CD40L, TNFα, and RANKL; 0.2 μg/ml for BAFF, OX40L, 4-1BBL; and 0.3 μg/mL for EGF. Assays were done in duplicate or triplicate per plate and repeated at least three times; the averaged data were normalized and used for data fitting and analysis. Binding data were fitted using the standard log inhibitor versus response model in GraphPad Prism to determine the corresponding IC50 values.
(In general: In an ELISA, binding on a coated surface is turned into a signal by an enzyme label.)

Assay [2] has as its target T2, OX40-OX40L (Homo sapiens, UniProt P23510+P43489).
T2 sequence (P43489 29-214 limits assumed): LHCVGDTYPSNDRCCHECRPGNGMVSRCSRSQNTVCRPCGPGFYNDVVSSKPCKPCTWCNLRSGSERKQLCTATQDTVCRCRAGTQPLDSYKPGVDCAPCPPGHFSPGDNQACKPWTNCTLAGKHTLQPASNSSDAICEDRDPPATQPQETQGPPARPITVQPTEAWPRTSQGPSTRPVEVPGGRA
T2 sequence (P23510 51-183 limits assumed): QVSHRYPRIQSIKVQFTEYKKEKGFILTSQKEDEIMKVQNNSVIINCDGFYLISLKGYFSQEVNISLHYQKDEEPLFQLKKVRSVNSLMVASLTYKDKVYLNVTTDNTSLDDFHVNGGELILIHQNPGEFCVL
Briefly: Cell-free ELISA-type OX40 binding inhibition assay. The settings on record: Table 2. As to the method: as §1

The subject of assay [3] is CD40L-induced NF-κB activation in CD40 sensor cells (HEK Blue). Briefly: Inhibition of CD40L-induced NF-κB activation in CD40 sensor cells (HEK-Blue). The following applies: CD40L 20 ng/mL, 18 h. The format is cell-based, human. The source says: Activities of the compounds of the disclosure were confirmed in cell-based assays. As a first example, TNF-R1 and CD40 expressing sensor cells (HEK-Blue; InvivoGen, San Diego, Calif.) were used as described in the literature (see Song et al., Br J Pharmacol 171:4955-4969 (2014) and Cechin et al., Steroids 85:36-43 (2014)).
Cells were maintained in DMEM at 80% confluence for each experiment. Cells were trypsinized and re-suspended in the same medium with 1% FBS and seeded on 96-well microtiter plates at a density of 1×10^5 cells/well in the absence and presence of various concentrations of compounds diluted in the same media. For ligand mediated stimulation, final concentrations of recombinant human TNFα (2 ng/mL) and CD40L (20 ng/mL) were maintained in the wells for this purpose. After 18-hour incubation at 37° C., 20 μL supernatant of each well were taken and added to another 96-well microtiter plate containing 180 μL/well of QUANTI-Blue (InvivoGen, CA). The level of SEAP was determined after 30-minute incubation at 37° C. by reading at 625 nm using a spectrophotometer. […] Data are average±SD (normalized to CD40L-activated cells alone) for n=4 independent experiments with duplicates for each condition.

In assay [4] the test system is TNFSF costimulatory interactions. The settings on record: literature; cited from earlier work.
Assay [5] deals with CD40L-induced proliferation of human CD19+ B cells. The assay can be described thus: Inhibition of CD40L-induced human CD19+ B-cell proliferation (BrdU). The format is cell-based. Here is the method: Because CD40 stimulation is an important signal for B cell proliferation, soluble CD40L can concentration-dependently induce the proliferation of human B cells.
Inhibition of cell proliferation was determined in freshly isolated human CD19^+ B cells using the colorimetric cell proliferation ELISA BrdU kit from Roche Applied Science (Indianapolis, Ind.). B cells were isolated from the PBMC as follows. Briefly, cells were washed three times with medium (RPMI 1640) and incubated for 20 min at 4° C. with 20 μL/10^7 cells of anti-CD19 Microbeads (Miltenyi Biotech, Bergisch Gladbach, Germany), according to the MiniMacs protocol (Miltenyi Biotech). Cells were then purified using magnetic columns. […] Cells were cultured in 96 wells plates (100 μL/well) at a cell density of 2×10^5 cells/mL in IMDM medium supplemented with 5% FBS, 100 U/mL penicillin, streptomycin 100 μg/mL, insulin-transferrin-selenium-G (all materials from Invitrogen, San Diego, Calif.) and 10 […] (R&D Systems). […] After 48 h, BrdU labeling solution was added as recommended, and cells were cultivated for another 48 h. Detection of incorporated BrdU was carried out following the instructions of the ELISA BrdU kit.
Data are average±SD for n=3 independent experiments with triplicates for each condition using a standard BrdU assay (Roche).

`Nc1ccc(C(=O)Nc2ccc(-c3ccc(C(=O)Nc4cccc5cccc(S(=O)(=O)O)c45)cc3)cc2)cc1` [Compound 21042]: the IC50 in assay [1] (IC50 CD40, Table 2) came to 301 µM; in assay [2] it was 12.8 µM. For the same compound, the “inhibition of human CD40-CD40L binding (in words)” value in assay [1] (cell-free binding) is on record as “concentration-dependent inhibition”.
Consider `O=C(Nc1ccc(-c2ccc(C(=O)Nc3cccc4cccc(S(=O)(=O)O)c34)cc2)cc1)c1ccc2[nH]nnc2c1` [Compound 21080], for which the half-maximal inhibitory concentration (IC50) was determined as 1 µM in assay [1] (IC50 CD40, Table 2) and 26.3 µM in assay [2]. Further, the “inhibition of human CD40-CD40L binding (in words)” value in assay [1] (cell-free binding) is recorded as “concentration-dependent inhibition”.
Consider `COC(=O)c1cccc2c(NC(=O)c3ccc(-c4ccc(NC(=O)c5ccc([N+](=O)[O-])cc5)cc4)cc3)cccc12` [Compound 24541], for which the IC50 in assay [1] (Table 2, read-out: IC50 CD40) is 916 µM; in assay [2] it was 6560 µM.
`O=C(Nc1ccc(-c2ccc(C(=O)Nc3ccc(S(=O)(=O)O)c4ccccc34)cc2)cc1)c1ccc([N+](=O)[O-])cc1` [Compound 25041]: the 50% inhibitory concentration (IC50) in assay [1] (IC50 CD40, Table 2) was 2.3 µM; in assay [2], 7 µM. The “inhibition of human CD40-CD40L binding (in words)” value in assay [1] (cell-free binding) was “concentration-dependent inhibition”.
Consider `O=C(Nc1ccc2c(O)c(N=Nc3ccc(N=Nc4ccc(S(=O)(=O)[O-])cc4)cc3S(=O)(=O)[O-])c(S(=O)(=O)[O-])cc2c1)Nc1ccc2c(O)c(N=Nc3ccc(N=Nc4ccc(S(=O)(=O)[O-])cc4)cc3S(=O)(=O)[O-])c(S(=O)(=O)[O-])cc2c1.[Na+].[Na+].[Na+].[Na+].[Na+].[Na+]` [DR80, direct red 80, reference compound], for which the half-maximal inhibitory concentration (IC50) in assay [1] (cell-free binding, n=3 independent experiments, read-out: IC50, inhibition of the CD40-CD40L interaction) was found to be 2.26 µM; in assay [3], 42.7 µM. Moreover, the “activity of other small molecule inhibitors (in words)” value in assay [4] is “active in the low μM range”.
In the case of `O=C([O-])C1=NN(c2ccc(S(=O)(=O)[O-])cc2)C(=O)C1N=Nc1ccc(S(=O)(=O)[O-])cc1.[Na+].[Na+].[Na+]` (stereo not shown) [Tartrazine, reference compound], the “inhibition of human CD40-CD40L binding (in words)” value in assay [1] (cell-free binding) is “inactive”. Further, the “inhibition of CD40L-induced human CD19+ B-cell proliferation (in words)” value in assay [5] was “no proliferation inhibiting activity”.
Turning to `Nc1ccc2cc(S(=O)(=O)[O-])cc(O)c2c1N=Nc1ccc(-c2ccc(N=Nc3c(N)ccc4cc(S(=O)(=O)[O-])cc(O)c34)cc2)cc1.[Na+].[Na+]` [chlorazol violet N], the “activity of other small molecule inhibitors (in words)” value in assay [4] is “active in the low μM range”.
Turning to `Cc1cc(S(=O)(=O)[O-])ccc1N=Nc1ccc(N=Nc2c(O)ccc3cccc(S(=O)(=O)[O-])c23)c(C)c1.[Na+].[Na+]` [crocein scarlet 7B], the “activity of other small molecule inhibitors (in words)” value in assay [4] is on record as “active in the low μM range”.
On to mordant brown, for which the “activity of other small molecule inhibitors (in words)” value in assay [4] was “active in the low μM range”.
